Source: ChEMBL document CHEMBL5252585, “Structure optimization and discovery of novel compound for the treatment of insertion mutations within exon 20 of EGFR and HER2” (Bioorg Med Chem, 2023)
Activity calls are given as the source filed them. The calls are words filed in the database; no cut-off is given here.

What was measured:
[1] = target: T1, Tyrosine-protein kinase Tec (Homo sapiens) (UniProt P42680); assay: Inhibition of TEC (unknown origin) at 500 nM relative to control
T1 sequence (whole entry): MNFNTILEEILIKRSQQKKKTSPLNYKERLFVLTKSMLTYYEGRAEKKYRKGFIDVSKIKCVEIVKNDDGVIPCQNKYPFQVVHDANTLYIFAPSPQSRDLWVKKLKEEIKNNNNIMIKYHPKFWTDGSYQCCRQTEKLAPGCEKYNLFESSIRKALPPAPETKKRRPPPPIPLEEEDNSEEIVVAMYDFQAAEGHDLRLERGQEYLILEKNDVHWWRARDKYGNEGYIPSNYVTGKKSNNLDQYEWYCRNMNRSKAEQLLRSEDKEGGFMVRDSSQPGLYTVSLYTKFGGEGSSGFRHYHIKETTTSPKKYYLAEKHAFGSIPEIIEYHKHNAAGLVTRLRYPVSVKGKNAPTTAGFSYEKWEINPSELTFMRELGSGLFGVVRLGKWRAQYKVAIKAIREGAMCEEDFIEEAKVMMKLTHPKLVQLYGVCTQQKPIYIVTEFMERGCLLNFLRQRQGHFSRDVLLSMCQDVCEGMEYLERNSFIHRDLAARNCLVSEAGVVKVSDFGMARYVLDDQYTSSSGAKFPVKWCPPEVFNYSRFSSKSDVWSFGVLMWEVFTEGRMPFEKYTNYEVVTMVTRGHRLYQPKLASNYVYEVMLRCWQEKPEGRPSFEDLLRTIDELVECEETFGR

[2] = Clearance in Sprague-Dawley rat at 10 mg/kg, po measured upto 8 hrs by LC-MS/MS analysis; format: ADME, organism-based; conditions: in vivo
[3] = Toxicity in BALB/c mouse harboring EGFR D770-N771 ins NPG mutant implanted with mouse BaF3 cells assessed as change in body weight at 10 to 20 mg/kg, po administered once daily for 13 to 14 days; format: organism-based; conditions: in vivo, dose lower 10 mg/kg, time lower 13 day, dose upper 20 mg/kg, time upper 14 day
BaF3 = assay: Inhibition of HER2-A775-G776 ins YVMA mutant in mouse BaF3 cells assessed as reduction in HER2 phosphorylation at less than 1 nM incubated for 24 hrs by Western blot analysis; format: cell-based
[4] = Half life in Sprague-Dawley rat at 10 mg/kg, po measured upto 8 hrs by LC-MS/MS analysis; format: ADME, organism-based; conditions: in vivo
[5] = AUC(0 to t) in Sprague-Dawley rat at 10 mg/kg, po measured upto 8 hrs by LC-MS/MS analysis; format: ADME, organism-based; parameters: dose 10 mg/kg, time < 8 hrs, route po; conditions: in vivo
[6] = Cmax in Sprague-Dawley rat at 10 mg/kg, po measured upto 8 hrs by LC-MS/MS analysis; format: ADME, organism-based; parameters: dose 10 mg/kg, time < 8 hrs, route po; conditions: in vivo
[7] = target: Receptor tyrosine-protein kinase erbB-2 (Homo sapiens, UniProt P04626); conditions: dose 500.0 nM
Description: Inhibition of HER2 (unknown origin) at 500 nM relative to control

[8] = target: Receptor tyrosine-protein kinase erbB-4 (Homo sapiens) (UniProt Q15303); conditions: dose 500.0 nM
Description: Inhibition of HER4 (unknown origin) at 500 nM relative to control

[9] = target: T2, Tyrosine-protein kinase TXK (Homo sapiens) (UniProt P42681); assay: Inhibition of TXK (unknown origin) at 500 nM relative to control
T2 sequence (whole entry): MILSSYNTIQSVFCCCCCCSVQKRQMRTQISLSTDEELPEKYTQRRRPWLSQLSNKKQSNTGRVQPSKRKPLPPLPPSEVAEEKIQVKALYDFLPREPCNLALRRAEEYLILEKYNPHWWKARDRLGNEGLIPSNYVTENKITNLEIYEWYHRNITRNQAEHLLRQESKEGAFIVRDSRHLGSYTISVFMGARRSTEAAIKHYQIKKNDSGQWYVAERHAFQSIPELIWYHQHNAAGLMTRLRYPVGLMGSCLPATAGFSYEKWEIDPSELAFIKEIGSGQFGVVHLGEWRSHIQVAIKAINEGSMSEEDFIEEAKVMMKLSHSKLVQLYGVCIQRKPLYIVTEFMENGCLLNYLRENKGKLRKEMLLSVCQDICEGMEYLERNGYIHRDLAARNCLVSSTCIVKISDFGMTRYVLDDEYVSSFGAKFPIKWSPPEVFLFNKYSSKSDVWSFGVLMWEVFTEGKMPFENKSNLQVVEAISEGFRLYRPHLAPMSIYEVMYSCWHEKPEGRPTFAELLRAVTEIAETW

[10] = Oral bioavailability in Sprague-Dawley rat at 10 mg/kg measured upto 8 hrs by LC-MS/MS analysis; format: ADME, organism-based; conditions: in vivo
[11] = target: T3, Ephrin type-A receptor 3 (Homo sapiens) (UniProt P29320); assay: Inhibition of EPHA3 (unknown origin) at 500 nM relative to control
T3 sequence (whole entry): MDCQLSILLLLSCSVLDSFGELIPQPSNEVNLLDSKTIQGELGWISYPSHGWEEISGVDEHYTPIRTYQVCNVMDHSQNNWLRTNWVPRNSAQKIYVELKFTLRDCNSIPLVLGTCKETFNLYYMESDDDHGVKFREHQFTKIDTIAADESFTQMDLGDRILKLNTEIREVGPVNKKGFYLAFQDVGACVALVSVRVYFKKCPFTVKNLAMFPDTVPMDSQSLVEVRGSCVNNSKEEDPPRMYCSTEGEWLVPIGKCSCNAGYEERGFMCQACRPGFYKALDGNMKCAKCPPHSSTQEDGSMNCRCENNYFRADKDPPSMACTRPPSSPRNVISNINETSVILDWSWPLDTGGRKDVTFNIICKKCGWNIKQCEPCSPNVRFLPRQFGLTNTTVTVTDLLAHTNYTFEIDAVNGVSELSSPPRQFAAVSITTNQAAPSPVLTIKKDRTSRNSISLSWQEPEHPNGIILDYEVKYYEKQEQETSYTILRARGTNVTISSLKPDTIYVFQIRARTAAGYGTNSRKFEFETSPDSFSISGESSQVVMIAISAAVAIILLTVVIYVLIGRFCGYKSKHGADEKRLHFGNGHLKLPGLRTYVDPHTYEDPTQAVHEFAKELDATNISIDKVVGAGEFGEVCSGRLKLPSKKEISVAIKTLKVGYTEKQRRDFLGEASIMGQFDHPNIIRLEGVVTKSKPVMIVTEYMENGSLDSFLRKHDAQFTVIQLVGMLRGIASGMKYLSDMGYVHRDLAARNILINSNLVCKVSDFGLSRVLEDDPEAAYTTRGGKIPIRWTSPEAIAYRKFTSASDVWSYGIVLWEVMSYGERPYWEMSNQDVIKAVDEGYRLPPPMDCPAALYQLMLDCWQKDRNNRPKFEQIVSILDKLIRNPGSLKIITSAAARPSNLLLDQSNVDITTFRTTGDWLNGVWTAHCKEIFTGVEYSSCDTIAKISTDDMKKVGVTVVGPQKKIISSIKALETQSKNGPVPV

[12] = AUC(0 to t) in Sprague-Dawley rat at 10 mg/kg, iv measured upto 8 hrs by LC-MS/MS analysis; format: ADME, organism-based; parameters: dose 10 mg/kg, time < 8 hrs, route iv; conditions: in vivo

Chain of Receptor tyrosine-protein kinase erbB-2 (P04626 whole entry): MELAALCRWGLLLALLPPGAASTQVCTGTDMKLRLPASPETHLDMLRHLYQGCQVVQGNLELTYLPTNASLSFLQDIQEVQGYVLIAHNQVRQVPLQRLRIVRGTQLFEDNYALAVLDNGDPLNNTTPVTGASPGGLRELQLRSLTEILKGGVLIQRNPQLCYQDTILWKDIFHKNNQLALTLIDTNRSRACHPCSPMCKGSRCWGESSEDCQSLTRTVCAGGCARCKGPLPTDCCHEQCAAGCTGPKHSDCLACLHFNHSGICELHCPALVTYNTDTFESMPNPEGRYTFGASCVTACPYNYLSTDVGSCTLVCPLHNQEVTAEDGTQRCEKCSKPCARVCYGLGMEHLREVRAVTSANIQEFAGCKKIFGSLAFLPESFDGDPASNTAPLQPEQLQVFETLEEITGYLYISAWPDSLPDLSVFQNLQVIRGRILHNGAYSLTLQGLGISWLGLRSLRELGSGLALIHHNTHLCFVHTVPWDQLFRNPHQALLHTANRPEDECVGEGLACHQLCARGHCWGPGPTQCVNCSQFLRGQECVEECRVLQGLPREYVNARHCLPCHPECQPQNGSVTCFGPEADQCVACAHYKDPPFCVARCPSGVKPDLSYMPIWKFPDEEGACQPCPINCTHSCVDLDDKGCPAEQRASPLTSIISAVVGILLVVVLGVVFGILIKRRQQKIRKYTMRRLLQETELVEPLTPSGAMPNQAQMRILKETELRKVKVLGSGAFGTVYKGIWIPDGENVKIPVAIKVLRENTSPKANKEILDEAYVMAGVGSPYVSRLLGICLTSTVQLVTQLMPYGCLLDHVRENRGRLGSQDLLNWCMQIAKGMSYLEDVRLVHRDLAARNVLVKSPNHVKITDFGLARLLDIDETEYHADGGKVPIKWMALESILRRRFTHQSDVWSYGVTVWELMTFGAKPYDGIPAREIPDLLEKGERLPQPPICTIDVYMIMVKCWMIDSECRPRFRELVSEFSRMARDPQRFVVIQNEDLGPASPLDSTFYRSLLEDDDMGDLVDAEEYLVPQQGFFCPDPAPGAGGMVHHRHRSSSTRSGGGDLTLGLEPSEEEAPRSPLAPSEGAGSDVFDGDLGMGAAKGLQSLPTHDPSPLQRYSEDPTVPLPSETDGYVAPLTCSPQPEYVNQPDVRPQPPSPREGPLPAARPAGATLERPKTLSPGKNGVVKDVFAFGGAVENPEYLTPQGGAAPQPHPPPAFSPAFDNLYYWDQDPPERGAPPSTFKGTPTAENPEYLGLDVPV
Chain of Receptor tyrosine-protein kinase erbB-4 (Homo sapiens) (Q15303 whole entry): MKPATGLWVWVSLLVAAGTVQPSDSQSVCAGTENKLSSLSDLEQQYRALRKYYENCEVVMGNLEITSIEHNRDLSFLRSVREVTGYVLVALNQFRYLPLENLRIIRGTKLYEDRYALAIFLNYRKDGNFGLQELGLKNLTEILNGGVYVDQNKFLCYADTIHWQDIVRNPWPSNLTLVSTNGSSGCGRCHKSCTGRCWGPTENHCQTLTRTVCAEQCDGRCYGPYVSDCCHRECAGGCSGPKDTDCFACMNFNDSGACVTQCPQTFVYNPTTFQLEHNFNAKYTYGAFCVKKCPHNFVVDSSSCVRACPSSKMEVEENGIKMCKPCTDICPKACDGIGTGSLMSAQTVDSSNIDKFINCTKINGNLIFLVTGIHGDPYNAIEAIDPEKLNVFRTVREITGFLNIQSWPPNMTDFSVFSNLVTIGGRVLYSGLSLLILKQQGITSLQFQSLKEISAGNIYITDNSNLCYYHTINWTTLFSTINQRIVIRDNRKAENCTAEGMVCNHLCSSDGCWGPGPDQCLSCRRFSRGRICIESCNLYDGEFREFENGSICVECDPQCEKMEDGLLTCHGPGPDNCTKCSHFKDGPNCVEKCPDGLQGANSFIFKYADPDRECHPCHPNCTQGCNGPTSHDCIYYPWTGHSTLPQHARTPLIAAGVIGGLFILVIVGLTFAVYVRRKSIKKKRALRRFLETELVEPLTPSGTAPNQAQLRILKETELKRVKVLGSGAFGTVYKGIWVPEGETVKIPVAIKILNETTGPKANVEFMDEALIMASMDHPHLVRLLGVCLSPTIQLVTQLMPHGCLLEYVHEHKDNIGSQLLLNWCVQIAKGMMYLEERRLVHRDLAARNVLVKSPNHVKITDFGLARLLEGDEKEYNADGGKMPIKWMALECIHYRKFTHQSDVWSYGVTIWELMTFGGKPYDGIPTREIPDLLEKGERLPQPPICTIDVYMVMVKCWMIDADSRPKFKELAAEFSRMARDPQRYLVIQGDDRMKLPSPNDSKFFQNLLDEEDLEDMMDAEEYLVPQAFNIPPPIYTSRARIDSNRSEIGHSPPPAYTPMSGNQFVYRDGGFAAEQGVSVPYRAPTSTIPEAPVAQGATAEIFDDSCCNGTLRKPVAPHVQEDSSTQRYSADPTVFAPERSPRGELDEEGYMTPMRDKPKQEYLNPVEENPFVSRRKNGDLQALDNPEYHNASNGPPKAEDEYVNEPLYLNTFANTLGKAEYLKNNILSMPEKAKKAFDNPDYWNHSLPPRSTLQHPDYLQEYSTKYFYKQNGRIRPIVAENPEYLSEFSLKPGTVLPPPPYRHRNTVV

C=CC(=O)N1CCC(Oc2cc3c(Nc4cccc(Cl)c4F)ncnc3cc2O[C@H]2CCOC2)CC1
inhibition [1]: > 20% | CL/F [2]: 2.96 mL/min | Activity [3]: Non-Toxic | inhibition (BaF3): Active | half-life [4]: 6.93 h | AUC(0-t) at 8 h [5]: 9500 ng·h/mL | Cmax [6]: 1690 ng/mL | inhibition [7]: 100% | inhibition [8]: 100% | inhibition [9]: > 20% | bioavailability [10]: 68% | inhibition [11]: > 20% | AUC(0-t) at 8 h [12]: 13900 ng·h/mL
